Here are results for one compound from patent publication US7385039B2, “Methods and compositions for regulating imidazoline receptors” (priority 1998, dated 2008).

The assay deals with I1R. The assay is described as follows: I1R model: [3H]arachidonic acid release from PC-12 cells. The assay is classed as cell-based. The protocol:
Assays for measuring imidazoline receptor-mediated arachidonic acid release from PC12 cells is as described in Ernsberger et al., (1995, FASEB J. 9:A114).
I1R model: [^3H]Arachidonic acid (AA) release from PC-12 cells. Assays (Emsberger, P. (1998) J. Auton. Nerv. Syst. 72, 147-154 Ernsberger, P. (1998) J. Auton. Nerv. Syst. 72, 147-154) were done after a 30 min washout to attain a stable background. Cells were superfused with 0.01% BSA in Krebs buffer for seven 1-min fractions (baseline), then treated with 10 μM or 100 μM I-4-AA-RP alone, or together with efaroxan (10 μM), a prototypical I1-antagonist/I3-agonist. Controls included baseline release with vehicle alone (0-7 min) or vehicle containing efaroxan (5 min) before adding I-4-AA-RP. [^3H]products (>98% AA) collected in each 1-min fraction were expressed as fractional release defined as % total radioactivity incorporated into cells, corrected for [^3H]AA previously released (Ernsberger, P. (1998) J. Auton. Nerv. Syst. 72, 147-154).

`O=C(O)Cc1cn(C2OC(COP(=O)(O)O)C(O)C2O)cn1` [IAA-RP, 1-(β-D-ribofuranosyl)-imidazole-4-acetic acid 5′ phosphate]: the “increase of [3H]AA release” value is given as 68±29% (10 μM) and 177±89% (100 μM). Also, the “stimulation of [3H]AA release (in words)” value (IAA-R 10 μM-1 mM) was “stimulated release of arachidonic acid”.
